Reference: PMC3664191 (Bioorganic & medicinal chemistry letters, 2013)
Each block holds one molecule with its values, some of them ahead of it.

Columns and labels:
Clk4 = Clk4 (Homo sapiens, UniProt Q9HAZ1); experiment: Kinase Glo; assay type: biochemical; details: matrix library, Kinase Glo (Promega) assay, Figure 4
Clk3 = Clk3 (Homo sapiens, UniProt P49761); details: cited from earlier work
[1] = target: dopamine transporter (DAT) (Homo sapiens, UniProt Q01959); experiment: Ricerca LeadProfiling off-target screen; assay type: binding; details: read-out: inhibition or stimulation, dopamine transporter (DAT)
[2] = target: norepinephrine transporter (NET) (Homo sapiens, UniProt P23975); experiment: Ricerca LeadProfiling off-target screen; assay type: binding; details: read-out: inhibition or stimulation, norepinephrine transporter (NET)
[3] = phosphate buffered saline (PBS) and assay media
adrenergic α2A = target: T1, adrenergic α2A (Homo sapiens, UniProt P08913); experiment: Ricerca LeadProfiling off-target screen; details: read-out: inhibition or stimulation, adrenergic α2A
T1 sequence (P08913 1-465): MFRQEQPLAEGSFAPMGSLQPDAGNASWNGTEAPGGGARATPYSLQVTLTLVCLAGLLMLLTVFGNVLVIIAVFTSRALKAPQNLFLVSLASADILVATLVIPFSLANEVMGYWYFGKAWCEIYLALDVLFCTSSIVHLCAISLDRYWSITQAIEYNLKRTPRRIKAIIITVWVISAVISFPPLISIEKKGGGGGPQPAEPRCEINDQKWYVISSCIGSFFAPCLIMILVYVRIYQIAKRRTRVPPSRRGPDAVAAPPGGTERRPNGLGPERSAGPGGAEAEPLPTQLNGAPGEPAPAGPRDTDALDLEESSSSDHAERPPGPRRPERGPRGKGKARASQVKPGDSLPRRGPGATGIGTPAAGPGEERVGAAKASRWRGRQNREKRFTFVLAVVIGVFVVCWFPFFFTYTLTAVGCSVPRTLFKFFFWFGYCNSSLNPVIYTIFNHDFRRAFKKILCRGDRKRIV

CSNK1E = CSNK1E (Homo sapiens, UniProt P49674); experiment: DiscoverRX KINOMEscan binding; details: read-out: % control CSNK1E
DRAK = experiment: DiscoverRX KINOMEscan binding; details: 10 μM

Chain of Clk4 (Q9HAZ1 whole entry, species assumed): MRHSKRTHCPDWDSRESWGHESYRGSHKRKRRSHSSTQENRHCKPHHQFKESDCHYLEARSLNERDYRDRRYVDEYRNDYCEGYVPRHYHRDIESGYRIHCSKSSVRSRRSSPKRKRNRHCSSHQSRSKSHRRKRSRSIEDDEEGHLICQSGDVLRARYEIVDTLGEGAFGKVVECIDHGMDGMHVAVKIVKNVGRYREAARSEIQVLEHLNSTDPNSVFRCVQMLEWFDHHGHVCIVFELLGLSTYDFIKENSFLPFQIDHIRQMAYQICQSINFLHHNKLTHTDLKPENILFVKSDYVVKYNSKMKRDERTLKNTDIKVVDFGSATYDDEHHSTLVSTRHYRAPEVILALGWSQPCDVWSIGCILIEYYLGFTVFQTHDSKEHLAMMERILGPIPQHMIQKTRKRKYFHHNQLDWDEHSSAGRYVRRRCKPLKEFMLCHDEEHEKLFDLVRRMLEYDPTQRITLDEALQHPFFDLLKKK
Chain of Clk3 (P49761 whole entry): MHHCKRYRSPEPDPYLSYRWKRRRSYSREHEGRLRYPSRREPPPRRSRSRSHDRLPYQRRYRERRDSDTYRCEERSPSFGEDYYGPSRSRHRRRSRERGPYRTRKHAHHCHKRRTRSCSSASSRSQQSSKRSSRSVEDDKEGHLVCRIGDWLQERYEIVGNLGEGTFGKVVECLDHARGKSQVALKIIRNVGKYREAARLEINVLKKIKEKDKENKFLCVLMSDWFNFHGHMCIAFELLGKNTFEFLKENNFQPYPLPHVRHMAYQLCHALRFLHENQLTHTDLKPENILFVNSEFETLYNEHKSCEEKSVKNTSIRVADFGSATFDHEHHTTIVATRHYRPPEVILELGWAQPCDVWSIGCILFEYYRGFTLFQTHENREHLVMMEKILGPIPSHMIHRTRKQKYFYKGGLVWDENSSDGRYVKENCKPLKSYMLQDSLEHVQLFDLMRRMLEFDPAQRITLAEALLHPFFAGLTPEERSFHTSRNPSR
Chain of norepinephrine transporter (NET) (P23975 whole entry): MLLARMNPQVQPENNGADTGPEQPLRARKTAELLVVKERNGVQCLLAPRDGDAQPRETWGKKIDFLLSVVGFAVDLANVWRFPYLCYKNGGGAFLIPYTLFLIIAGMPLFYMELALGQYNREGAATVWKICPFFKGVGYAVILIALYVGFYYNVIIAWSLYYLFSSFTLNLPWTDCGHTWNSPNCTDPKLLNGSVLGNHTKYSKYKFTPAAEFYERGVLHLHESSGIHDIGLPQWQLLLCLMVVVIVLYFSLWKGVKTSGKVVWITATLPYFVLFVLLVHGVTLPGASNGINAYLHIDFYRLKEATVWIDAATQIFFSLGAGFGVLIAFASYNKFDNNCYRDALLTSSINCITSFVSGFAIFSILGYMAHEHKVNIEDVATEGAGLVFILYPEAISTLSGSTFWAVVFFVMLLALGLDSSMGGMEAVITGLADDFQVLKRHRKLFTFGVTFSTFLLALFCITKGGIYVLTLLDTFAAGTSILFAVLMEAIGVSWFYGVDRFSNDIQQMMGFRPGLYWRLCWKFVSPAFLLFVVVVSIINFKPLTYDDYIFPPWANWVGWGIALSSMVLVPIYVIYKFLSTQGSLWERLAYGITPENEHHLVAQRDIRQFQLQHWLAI
Chain of CSNK1E (P49674 whole entry): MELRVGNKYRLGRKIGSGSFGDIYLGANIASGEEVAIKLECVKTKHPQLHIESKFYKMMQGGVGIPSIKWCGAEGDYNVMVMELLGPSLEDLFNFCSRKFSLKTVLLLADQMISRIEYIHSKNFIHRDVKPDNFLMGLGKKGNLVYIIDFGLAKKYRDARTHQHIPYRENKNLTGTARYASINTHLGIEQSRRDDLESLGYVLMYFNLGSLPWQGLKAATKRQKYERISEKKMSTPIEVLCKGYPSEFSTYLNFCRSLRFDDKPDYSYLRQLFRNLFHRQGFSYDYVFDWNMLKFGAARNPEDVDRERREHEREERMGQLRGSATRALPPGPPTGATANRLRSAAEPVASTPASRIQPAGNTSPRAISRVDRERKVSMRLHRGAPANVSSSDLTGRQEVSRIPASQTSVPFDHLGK
Chain of dopamine transporter (DAT) (Q01959 whole entry): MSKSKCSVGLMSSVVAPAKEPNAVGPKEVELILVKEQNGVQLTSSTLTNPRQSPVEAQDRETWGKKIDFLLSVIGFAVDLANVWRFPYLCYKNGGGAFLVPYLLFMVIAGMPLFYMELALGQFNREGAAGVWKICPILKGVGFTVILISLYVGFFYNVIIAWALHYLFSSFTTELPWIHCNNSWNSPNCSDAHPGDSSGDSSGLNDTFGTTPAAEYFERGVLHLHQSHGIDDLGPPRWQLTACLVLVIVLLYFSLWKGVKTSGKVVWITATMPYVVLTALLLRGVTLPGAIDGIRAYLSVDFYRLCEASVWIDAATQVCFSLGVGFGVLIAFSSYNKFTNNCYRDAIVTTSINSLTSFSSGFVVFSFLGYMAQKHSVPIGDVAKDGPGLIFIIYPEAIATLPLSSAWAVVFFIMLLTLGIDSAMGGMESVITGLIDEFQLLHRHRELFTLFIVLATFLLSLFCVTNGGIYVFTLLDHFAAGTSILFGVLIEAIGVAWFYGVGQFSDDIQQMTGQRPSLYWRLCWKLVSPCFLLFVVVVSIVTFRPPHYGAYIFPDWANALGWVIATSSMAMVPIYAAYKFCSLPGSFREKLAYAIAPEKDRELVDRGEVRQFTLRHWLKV

- activity against Clk4 (Clk4): active
SMILES: COc1cccc(-c2nccc(NCc3ccc(Cl)c(Cl)c3)n2)c1 [Compound C2]

SMILES: Clc1ccc(CNc2ccnc(-c3ccc4c(c3)OCO4)n2)cc1 [Compound A4]
- activity against Clk4 (Clk4): active

SMILES: CCN1/C(=C/C(C)=O)Sc2ccc(OC)cc21 [TG003]
- Clk3 activity (Clk3): inactive

- activity against Clk4 (Clk4): active
SMILES: COc1ccc(-c2nccc(NCc3ccc(Cl)c(Cl)c3)n2)cc1 [Compound G2]

SMILES: Clc1cc(Cl)cc(CNc2ncncc2-c2ccc3c(c2)OCO3)c1 [Compound 35]
- inhibition at 10 µM [1]: > 50%
- inhibition at 10 µM [2]: > 50%
- solubility [3]: limited
- cell permeability (Cell permeability): moderately cell permeable
- plasma stability (Plasma stability, mouse): stable
- plasma stability (Plasma stability, human): stable
- inhibition at 10 µM (adrenergic α2A): > 50%

SMILES: O=C1NC(Nc2ccccc2)=N/C1=C\c1ccc2c(c1)OCO2 [Leucettine L41]
- IC50 (Clk3; read-out: Clk3 IC50): 4.5 µM

- activity against Clk4 (Clk4): active
SMILES: Clc1ccc(CNc2ccnc(-c3ccc4c(c3)OCO4)n2)cc1Cl [Compound A2]

- activity against Clk4 (Clk4): active
SMILES: COc1ccc(-c2nccc(NCc3ccc(Cl)cc3)n2)cc1 [Compound G4]

- remaining binding at 10 µM (CSNK1E): < 10%
- % control DRAK (DRAK): < 10 % control
SMILES: Clc1ccc(CNc2nccc(-c3ccc4[nH]ncc4c3)n2)cc1Cl [Compound 22]
